Like-named read-outs stand apart in the source and are kept apart here.
Legend:
A2780 = test: Cytotoxic activity, cell count (24 h); format: cell-based
Excerpt: (§1) Cytotoxic activity of the Moringa derived isothiocyanate (GMG-ITC) on a panel of human tumor cell lines.

H460 S5 = test: Cytotoxic activity, cell count (24 h); format: cell-based; conditions: Homo sapiens, read-out: Cell count (24 h) IC50
Excerpt: as §1

H460 wt = test: Cytotoxic activity, cell count (24 h); format: cell-based; conditions: Homo sapiens, read-out: Cell count (24 h) IC50
Excerpt: as §1

HCT116 p53+/+ = test: Cytotoxic activity, cell count (24 h); format: cell-based; conditions: Homo sapiens, read-out: Cell count (24 h) IC50
Excerpt: as §1

HCT116 p53−/− = test: Cytotoxic activity, cell count (24 h); format: cell-based; conditions: Homo sapiens, read-out: Cell count (24 h) IC50
Excerpt: as §1

HL60 = test: Cytotoxic activity, cell count (24 h); format: cell-based; conditions: Homo sapiens, read-out: Cell count (24 h) IC50
Excerpt: as §1

MCF7 NEO = test: Cytotoxic activity, cell count (24 h); format: cell-based; conditions: Homo sapiens, read-out: Cell count (24 h) IC50
Excerpt: as §1

MCF7 π = test: Cytotoxic activity, cell count (24 h); format: cell-based; conditions: Homo sapiens, read-out: Cell count (24 h) IC50
Excerpt: as §1

RPMI-8226 = test: Cytotoxic activity, cell count (24 h); format: cell-based; conditions: Homo sapiens, read-out: Cell count (24 h) IC50
Excerpt: as §1

[1] = system: human myeloma tumor cell lines s.c. transplanted; test: Antitumor activity in vivo in SCID mice bearing s.c. transplanted human myeloma
Excerpt: In the table 3 is reported the antitumor activity of the GMG-ITC administered in vivo in SCID mice bearing human myeloma tumor cell lines s.c. transplanted.

[2] = system: human ovarian carcinoma A2780; test: Antitumor activity in vivo against human ovarian carcinoma A2780
[3] = system: H460 human lung tumor cell line; test: Sensitivity of H460 cells to glucomoringin with or without myrosinase (cell growth relative to control); format: cell-based; conditions: GMG 100 μM, no MYR

Q: For `CC1OC(Oc2ccc(CN=C=S)cc2)C(O)C(O)C1O` (centres unmarked) [GMG-ITC], which IC50 (A2780; Homo sapiens, A2780, 24 h, read-out: Cell count (24 h) IC50) is on record?
A: The IC50 was 15 ± 3 µM.

Q: And the IC50 (H460 S5; NCI-H460, 24 h)?
A: The IC50 was 18 ± 6.7 µM.

Q: And the IC50 (H460 wt; NCI-H460, 24 h)?
A: The IC50 was 29 ± 0.8 µM.

Q: What about the IC50 (HCT116 p53+/+; HCT-116, 24 h) of the same molecule?
A: The IC50 was 12 ± 0.3 µM.

Q: What about the IC50 (HCT116 p53−/−; HCT-116, 24 h) of the same molecule?
A: The IC50 was 13 ± 0.25 µM.

Q: What about the IC50 (HL60; HL-60, 24 h) of the same molecule?
A: The IC50 was 15 ± 1 µM.

Q: What about the IC50 (MCF7 NEO; MCF7, 24 h) of the same molecule?
A: The IC50 was 20 ± 4.4 µM.

Q: And the IC50 (MCF7 π; MCF7, 24 h)?
A: The IC50 was 21 ± 5.7 µM.

Q: And the IC50 (RPMI-8226; RPMI-8226, 24 h)?
A: The IC50 was 6 ± 1 µM.

Q: And the TWI % ([1]; i.p. q5dx2w, 20 mg/kg/inj.)?
A: The TWI % was 70%.

Q: And the antitumor activity [2]?
A: The antitumor activity was “low”.

Q: And the TWI % ([2]; i.p. q5dx2w, 20 mg/kg/inj.)?
A: Its TWI % is 46%.

Q: For `C[S+]([O-])CCCCN=C=S` (centres unmarked) [GRA, sulphorafane, reference compound], which IC50 (A2780; Homo sapiens, A2780, 24 h; read-out: Cell count (24 h) IC50) is on record?
A: Its IC50 is 18 ± 1 µM.

Q: What about the IC50 (H460 S5; NCI-H460, H460 S5, 24 h) of the same molecule?
A: The IC50 was 19 ± 1 µM.

Q: What about the IC50 (H460 wt; NCI-H460, H460 wt, 24 h) of the same molecule?
A: The IC50 was 29 ± 0.5 µM.

Q: And the IC50 (HCT116 p53+/+; HCT-116, HCT116 p53+/+, 24 h)?
A: The IC50 was 17 ± 2.3 µM.

Q: What about the IC50 (HCT116 p53−/−; HCT-116, HCT116 p53−/−, 24 h) of the same molecule?
A: The IC50 was 18 ± 5.3 µM.

Q: What about the IC50 (HL60; HL-60, HL60, 24 h) of the same molecule?
A: Its IC50 is 16 ± 1 µM.

Q: And the IC50 (MCF7 NEO; MCF7 NEO, 24 h)?
A: The IC50 was 26 ± 4 µM.

Q: And the IC50 (MCF7 π; MCF7 π, 24 h)?
A: The IC50 was 27 ± 4 µM.

Q: And the IC50 (RPMI-8226; RPMI-8226 (myeloma), 24 h)?
A: Its IC50 is 8 ± 0.2 µM.

Q: Which “% of cells growth relative to control” value ([3]; 24 h recovery) does the source give for `C[C@@H]1O[C@@H](Oc2ccc(C/C(=N/OS(=O)(=O)O)S[C@@H]3O[C@H](CO)[C@@H](O)[C@H](O)[C@H]3O)cc2)[C@H](O)[C@H](O)[C@H]1O` [GMG, glucomoringin] here?
A: Its value is 100%.

Q: What about the “% of cells growth relative to control” value ([3]; 24 h treatment) of the same molecule?
A: The value was 98%.

Q: What about the “% of cells growth relative to control” value ([3]; 48 h recovery) of the same molecule?
A: Its value is 100%.

Q: And the “% of cells growth relative to control” value ([3]; time 0)?
A: The value was 100%.

Q: What about the TWI % ([1]; p.o. q5dx2, 400 mg/kg/inj.) of the same molecule?
A: Its TWI % is 62%.

Source: patent US8772251B2, “Use of isothiocyanate derivatives as anti-myeloma agents” (Indena S.p.A., priority 2008, dated 2014)
